Data set [1] can be described thus: Plasma clearance in rhesus monkey at 0.5 mg/kg, iv or 1 mg/kg, po by LC/MS/MS analysis. Format: ADME, organism-based, Macaca mulatta.
Data set [2] deals with Voltage-gated inwardly rectifying potassium channel KCNH2 (Homo sapiens, UniProt Q12809). The data set can be described thus: Displacement of [35S]-MK499 from human ERG expressed in HEK293 cell membranes. On the technique in general: Loss of bound radioactivity is the signal in a displacement assay; it reports binding, not function.
Chain of Voltage-gated inwardly rectifying potassium channel KCNH2 (Q12809 whole entry): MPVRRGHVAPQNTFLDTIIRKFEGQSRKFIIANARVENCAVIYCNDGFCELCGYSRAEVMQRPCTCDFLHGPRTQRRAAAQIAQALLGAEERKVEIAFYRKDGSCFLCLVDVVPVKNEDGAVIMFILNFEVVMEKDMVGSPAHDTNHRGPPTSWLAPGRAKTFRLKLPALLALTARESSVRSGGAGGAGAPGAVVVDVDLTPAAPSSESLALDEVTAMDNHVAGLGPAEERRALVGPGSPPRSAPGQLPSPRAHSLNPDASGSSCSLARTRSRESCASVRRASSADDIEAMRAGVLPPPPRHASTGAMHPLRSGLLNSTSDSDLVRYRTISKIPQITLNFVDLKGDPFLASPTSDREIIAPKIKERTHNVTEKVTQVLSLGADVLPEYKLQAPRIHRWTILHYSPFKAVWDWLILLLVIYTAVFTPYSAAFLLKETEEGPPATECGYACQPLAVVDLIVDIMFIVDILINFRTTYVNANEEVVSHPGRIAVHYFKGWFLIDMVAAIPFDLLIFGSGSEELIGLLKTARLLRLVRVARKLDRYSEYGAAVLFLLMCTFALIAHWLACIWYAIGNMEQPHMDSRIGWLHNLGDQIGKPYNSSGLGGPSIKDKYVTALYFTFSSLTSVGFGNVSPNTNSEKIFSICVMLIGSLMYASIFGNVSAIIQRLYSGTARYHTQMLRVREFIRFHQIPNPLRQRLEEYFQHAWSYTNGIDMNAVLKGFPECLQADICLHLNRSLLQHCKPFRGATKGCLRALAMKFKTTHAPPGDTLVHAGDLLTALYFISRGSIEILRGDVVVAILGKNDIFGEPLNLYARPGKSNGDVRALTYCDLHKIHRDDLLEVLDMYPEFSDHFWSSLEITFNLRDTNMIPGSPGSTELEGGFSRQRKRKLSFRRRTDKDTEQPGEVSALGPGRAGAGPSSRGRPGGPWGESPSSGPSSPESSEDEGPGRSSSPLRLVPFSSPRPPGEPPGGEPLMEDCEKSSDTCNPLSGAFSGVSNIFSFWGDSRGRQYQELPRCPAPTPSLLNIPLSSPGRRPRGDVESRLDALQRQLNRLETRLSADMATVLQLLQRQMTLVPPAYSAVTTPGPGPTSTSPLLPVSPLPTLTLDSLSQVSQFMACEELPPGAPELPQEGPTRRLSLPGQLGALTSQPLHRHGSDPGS
For data set [3], the target named is Free fatty acid receptor 1 (Homo sapiens, UniProt O14842). The data set can be described thus: Agonist activity at human GPR40 expressed in HEK293 cells assessed as induction of IP1 accumulation after 60 mins by HTRF assay. Format: functional, cell-based.
Chain of Free fatty acid receptor 1 (O14842 whole entry): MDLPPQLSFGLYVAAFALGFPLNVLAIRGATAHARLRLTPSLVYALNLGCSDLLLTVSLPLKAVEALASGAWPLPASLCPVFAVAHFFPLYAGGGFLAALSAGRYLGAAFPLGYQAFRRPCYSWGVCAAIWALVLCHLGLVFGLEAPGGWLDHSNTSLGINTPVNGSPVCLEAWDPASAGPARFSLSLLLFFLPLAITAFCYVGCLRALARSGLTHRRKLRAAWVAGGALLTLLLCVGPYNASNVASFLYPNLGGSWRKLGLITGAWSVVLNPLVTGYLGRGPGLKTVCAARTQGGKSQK
Data set [4] can be described thus: Protein binding in dog plasma at 1 mg/kg, iv or 2 mg/kg, po by LC/MS/MS analysis. Format: ADME, organism-based, Canis lupus familiaris. The following applies: read-out: PPB (converted).
A short description of data set [5]: Half life in dog at 1 mg/kg, iv or 2 mg/kg, po by LC/MS/MS analysis. Format: ADME, organism-based, Canis lupus familiaris. The settings on record: in vivo.
Data set [6] has as its system Mus musculus. The data set can be described thus: Antidiabetic activity in diet-induced obese mouse assessed as increase in glucose infusion rate during hyperinsulinemic euglycemic clamp procedure at 30 mg/kg, po qd administered daily via gavage measured after 28 days. Format: functional, organism-based.
Data set [7] is described as follows: Half life in rat at 1 mg/kg, iv or 2 mg/kg, po by LC/MS/MS analysis. Format: ADME, organism-based. The settings on record: in vivo.
Data set [8] deals with Sodium channel protein type 5 subunit alpha (Homo sapiens, UniProt Q14524). The data set can be described thus: Inhibition of Nav1.5 (unknown origin).
The nature of data set [9]: Half life in mouse at 2 mg/kg, iv or 10 mg/kg, po by LC/MS/MS analysis. Format: ADME, organism-based. The following applies: in vivo.
Data set [10] can be described thus: Plasma clearance in rat at 1 mg/kg, iv or 2 mg/kg, po by LC/MS/MS analysis. Format: ADME, organism-based.
Data set [11] in a line: AUC in dog at 1 mg/kg, iv by LC/MS/MS analysis. Format: ADME, organism-based, Canis lupus familiaris. The following applies: in vivo.
Data set [12] in a line: Protein binding in rhesus monkey plasma at 0.5 mg/kg, iv or 1 mg/kg, po by LC/MS/MS analysis. Format: ADME, organism-based, Macaca mulatta. The settings on record: read-out: PPB (converted).
Data set [13] is described as follows: Antidiabetic activity in C57BL/6 mouse administered 60 mins via oral gavage prior to dextrose challenge measured up to 120 mins post dextrose challenge by oGTT. Format: functional.
Data set [14] is described as follows: Half life in rhesus monkey at 0.5 mg/kg, iv or 1 mg/kg, po by LC/MS/MS analysis. Format: ADME, organism-based, Macaca mulatta. The settings on record: in vivo.
In data set [15] the target is T1, Peroxisome proliferator-activated receptor delta (Homo sapiens) (UniProt Q03181).
T1 sequence (whole entry): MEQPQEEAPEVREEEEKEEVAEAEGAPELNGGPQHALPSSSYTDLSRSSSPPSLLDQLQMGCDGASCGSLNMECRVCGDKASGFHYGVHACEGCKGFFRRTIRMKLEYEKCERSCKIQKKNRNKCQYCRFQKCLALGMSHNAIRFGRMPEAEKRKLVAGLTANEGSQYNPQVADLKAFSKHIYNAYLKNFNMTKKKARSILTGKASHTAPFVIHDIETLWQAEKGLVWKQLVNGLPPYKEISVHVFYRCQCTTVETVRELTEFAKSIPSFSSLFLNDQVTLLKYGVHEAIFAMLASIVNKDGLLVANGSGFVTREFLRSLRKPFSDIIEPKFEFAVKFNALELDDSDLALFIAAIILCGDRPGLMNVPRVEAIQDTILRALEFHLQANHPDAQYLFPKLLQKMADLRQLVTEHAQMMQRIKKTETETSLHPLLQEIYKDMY
The data set can be described thus: Binding affinity to human PPARdelta.

Data set [16] relates to Mus musculus. The data set can be described thus: Toxicity in diet-induced obese mouse assessed as change in body weight at 30 mg/kg, po qd administered daily via gavage for 28 days. Format: organism-based. The settings on record: in vivo, 672 h.
Data set [17] is described as follows: AUC in mouse at 2 mg/kg, iv by LC/MS/MS analysis. The following applies: in vivo. Format: ADME, organism-based.
The target of data set [18] is T2, Free fatty acid receptor 4 (Mus musculus, UniProt Q7TMA4).
T2 sequence (Q7TMA4 whole entry): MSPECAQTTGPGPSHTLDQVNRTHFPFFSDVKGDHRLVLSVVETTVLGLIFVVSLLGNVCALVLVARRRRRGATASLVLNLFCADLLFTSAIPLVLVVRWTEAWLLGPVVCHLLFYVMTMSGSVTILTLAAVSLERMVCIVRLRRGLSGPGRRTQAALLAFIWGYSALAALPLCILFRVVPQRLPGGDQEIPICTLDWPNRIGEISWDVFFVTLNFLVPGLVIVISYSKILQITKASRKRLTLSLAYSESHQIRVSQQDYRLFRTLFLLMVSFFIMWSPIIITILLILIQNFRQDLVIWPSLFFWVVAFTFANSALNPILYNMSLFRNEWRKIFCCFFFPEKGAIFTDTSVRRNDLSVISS
The data set can be described thus: Agonist activity at mouse GPR120 expressed in U2OS cells assessed as induction of beta-arrestin2 recruitment after 90 mins by luminescence assay. Format: cell-based.

For data set [19], the system named is Mus musculus. The data set can be described thus: Antidiabetic activity in diet-induced obese mouse assessed as reduction in homeostatic model assessment of insulin resistance at 30 mg/kg, po qd administered daily via gavage for 14 days measured on day 14 post dose. Format: functional, organism-based.
Data set [20] has as its target Voltage-dependent L-type calcium channel subunit alpha-1C (Homo sapiens, UniProt Q13936). The data set can be described thus: Inhibition of Cav1.2 (unknown origin).
Data set [21] in a line: Volume of distribution at steady state in rhesus monkey at 0.5 mg/kg, iv or 1 mg/kg, po by LC/MS/MS analysis. Format: ADME, organism-based, Macaca mulatta. The following applies: in vivo, read-out: Vdss.
The subject of data set [22] is Mus musculus. The data set can be described thus: Decrease in insulin levels in diet-induced obese mouse at 30 mg/kg, po qd administered daily via gavage for 28 days measured on day 28 post dose. Format: functional, organism-based.
Another data set concerns the target Cytochrome P450 2C9 (Homo sapiens, UniProt P11712). The data set can be described thus: Inhibition of human CYP2C9. Format: ADME.

pEC50: −log10 of the molar value. Active and inactive are the calls of the source. The rule behind the calls is not given here. Some results are limits rather than exact numbers.

Chain of Voltage-dependent L-type calcium channel subunit alpha-1C (Q13936 whole entry): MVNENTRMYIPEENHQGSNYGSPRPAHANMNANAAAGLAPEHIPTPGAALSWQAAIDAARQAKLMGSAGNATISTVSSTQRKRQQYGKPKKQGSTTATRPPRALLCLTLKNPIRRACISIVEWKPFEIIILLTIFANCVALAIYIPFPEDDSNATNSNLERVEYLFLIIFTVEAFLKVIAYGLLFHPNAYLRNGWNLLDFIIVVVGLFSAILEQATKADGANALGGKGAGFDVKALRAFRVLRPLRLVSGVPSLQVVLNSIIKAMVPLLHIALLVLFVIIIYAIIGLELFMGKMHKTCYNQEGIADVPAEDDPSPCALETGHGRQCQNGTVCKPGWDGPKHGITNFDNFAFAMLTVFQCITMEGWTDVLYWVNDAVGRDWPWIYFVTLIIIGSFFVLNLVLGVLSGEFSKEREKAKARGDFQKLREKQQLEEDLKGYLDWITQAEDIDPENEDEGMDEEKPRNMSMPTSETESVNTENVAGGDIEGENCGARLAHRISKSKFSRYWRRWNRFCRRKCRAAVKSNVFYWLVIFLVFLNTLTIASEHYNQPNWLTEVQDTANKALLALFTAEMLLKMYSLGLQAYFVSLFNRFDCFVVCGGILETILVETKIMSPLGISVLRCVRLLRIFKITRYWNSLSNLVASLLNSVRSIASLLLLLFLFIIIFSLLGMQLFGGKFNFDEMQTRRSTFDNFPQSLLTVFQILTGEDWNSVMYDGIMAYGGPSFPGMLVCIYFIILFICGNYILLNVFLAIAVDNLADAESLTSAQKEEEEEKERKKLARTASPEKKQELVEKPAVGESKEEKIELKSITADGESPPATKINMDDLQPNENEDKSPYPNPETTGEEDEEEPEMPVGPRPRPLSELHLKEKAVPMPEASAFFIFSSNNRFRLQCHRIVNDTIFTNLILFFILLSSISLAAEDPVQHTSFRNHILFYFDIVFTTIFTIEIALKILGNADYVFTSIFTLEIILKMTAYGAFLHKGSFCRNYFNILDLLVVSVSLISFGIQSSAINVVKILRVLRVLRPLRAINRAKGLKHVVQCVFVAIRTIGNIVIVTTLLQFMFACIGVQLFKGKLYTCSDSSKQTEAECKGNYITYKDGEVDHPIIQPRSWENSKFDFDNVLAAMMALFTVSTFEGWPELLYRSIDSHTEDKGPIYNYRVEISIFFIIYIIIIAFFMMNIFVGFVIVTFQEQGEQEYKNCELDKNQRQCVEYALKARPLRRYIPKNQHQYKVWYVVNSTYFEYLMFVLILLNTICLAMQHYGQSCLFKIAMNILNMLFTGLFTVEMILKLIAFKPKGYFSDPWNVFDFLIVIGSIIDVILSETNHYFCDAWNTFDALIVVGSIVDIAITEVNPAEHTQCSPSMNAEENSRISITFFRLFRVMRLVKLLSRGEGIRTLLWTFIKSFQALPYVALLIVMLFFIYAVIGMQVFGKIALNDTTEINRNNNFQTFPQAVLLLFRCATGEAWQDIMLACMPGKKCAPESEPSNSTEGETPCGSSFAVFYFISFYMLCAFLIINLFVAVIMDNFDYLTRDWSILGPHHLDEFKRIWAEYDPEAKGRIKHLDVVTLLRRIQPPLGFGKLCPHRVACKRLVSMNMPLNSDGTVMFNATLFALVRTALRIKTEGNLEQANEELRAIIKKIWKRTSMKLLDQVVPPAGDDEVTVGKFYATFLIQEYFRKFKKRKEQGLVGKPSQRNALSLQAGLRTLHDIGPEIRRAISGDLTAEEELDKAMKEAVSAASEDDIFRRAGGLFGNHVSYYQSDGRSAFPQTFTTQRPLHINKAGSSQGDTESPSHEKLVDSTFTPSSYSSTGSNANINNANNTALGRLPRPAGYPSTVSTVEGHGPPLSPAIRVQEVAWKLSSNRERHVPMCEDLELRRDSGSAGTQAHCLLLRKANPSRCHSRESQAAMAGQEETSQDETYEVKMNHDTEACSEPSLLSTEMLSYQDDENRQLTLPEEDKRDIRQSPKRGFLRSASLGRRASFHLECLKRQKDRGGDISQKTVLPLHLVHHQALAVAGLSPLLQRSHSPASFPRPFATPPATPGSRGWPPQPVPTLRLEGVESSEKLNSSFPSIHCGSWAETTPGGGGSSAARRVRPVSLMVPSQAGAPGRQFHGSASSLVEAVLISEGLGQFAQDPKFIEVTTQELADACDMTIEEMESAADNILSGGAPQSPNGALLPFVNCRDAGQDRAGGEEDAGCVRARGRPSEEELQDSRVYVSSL
Chain of Cytochrome P450 2C9 (P11712 whole entry): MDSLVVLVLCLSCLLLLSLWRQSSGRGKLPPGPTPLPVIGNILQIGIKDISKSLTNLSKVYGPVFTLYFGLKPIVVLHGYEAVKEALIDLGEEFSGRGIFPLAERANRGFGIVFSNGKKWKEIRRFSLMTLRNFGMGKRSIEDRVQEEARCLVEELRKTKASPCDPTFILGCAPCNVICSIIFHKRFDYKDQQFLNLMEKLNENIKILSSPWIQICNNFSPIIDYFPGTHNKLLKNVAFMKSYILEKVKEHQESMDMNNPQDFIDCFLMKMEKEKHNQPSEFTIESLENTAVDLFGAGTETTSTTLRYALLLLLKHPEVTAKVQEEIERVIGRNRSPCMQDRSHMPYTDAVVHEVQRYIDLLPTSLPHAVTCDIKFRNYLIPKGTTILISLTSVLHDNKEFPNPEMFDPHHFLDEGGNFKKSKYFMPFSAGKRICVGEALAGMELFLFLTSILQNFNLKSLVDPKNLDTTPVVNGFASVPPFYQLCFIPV

As a reminder, the pEC50 is the EC50 on a negative log10 scale, so that one unit is a factor of ten. What is called half-life is the time in which the quantity being followed falls by half. As usually defined, the AUC is concentration integrated over time. With `O=C(O)CC1CCC2(CC1)CCN(c1cc(OC(F)(F)F)ccc1Cl)CC2`, the clearance was 2.7 mL/min/kg in [1] and 2.3 mL/min/kg in [10]. The INH was above 60 µM in [2], 13 µM in data set [8], 21 µM in data set [20] and above 48 µM on Cytochrome P450 2C9. Also, the pEC50 is below 5.00 in [3] and 7.27 in data set [18]. The values for the fraction unbound in [4] and in data set [12] were 0.0015 and 0.0028, respectively. Besides, the half-life was 11 h in data set [5], 1.4 h in [7], 18.1 h in data set [9] and 9.1 h in [14]. Further, the outcome in the data set on Mus musculus [6], in the data set on Mus musculus [19] and in the data set on Mus musculus [22] was Active. In addition, the figures for the AUC in data set [11] and in data set [17] were 4.6 µM·h and 14.6 µM·h, respectively. Besides, the Activity entry in data set [13] is “Dose-dependent effect”; in data set [15], above 10 µM; in the data set with Mus musculus [16], “Non-Toxic”. For the same molecule, the Vd in [21] amounted to 1.7 L/kg.

(Values after ChEMBL document CHEMBL3872283, “Design, Synthesis, and Evaluation of Novel and Selective G-protein Coupled Receptor 120 (GPR120) Spirocyclic Agonists” (ACS Med Chem Lett, 2017).)
